Like-named read-outs stand apart in the source and are kept apart here. Square brackets hold non-standard residues; d marks the D form. Ends that are not written are not given here. Peptide text beside a SMILES is read from it. * marks the point of attachment. Cbz = O=C(OCc1ccccc1)*
Assays:
BCL10 [1] = molecular target: T1, BCL10 (Homo sapiens, UniProt O95999); test: Western blot of BCL10 protein level in DLBCL cells; format: cell-based; parameters: Western blot of BCL10 in cells treated with different concentrations of BCL10-P4 for 8 h; endogenous in cells; host or cells: HBL1, TMD8, OCI-LY1 DLBCL cells; settings: HBL1 cells, BCL10-P4 1 h pretreatment, then MG132 or chloroquine 3 h; Figure 4H
T1 sequence (O95999 1-233): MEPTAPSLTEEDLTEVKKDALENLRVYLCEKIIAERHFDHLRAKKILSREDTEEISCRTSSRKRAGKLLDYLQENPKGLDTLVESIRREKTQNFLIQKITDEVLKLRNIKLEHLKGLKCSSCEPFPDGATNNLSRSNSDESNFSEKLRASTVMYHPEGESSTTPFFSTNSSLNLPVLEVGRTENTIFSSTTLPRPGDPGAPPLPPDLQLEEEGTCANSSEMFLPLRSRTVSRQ
Protocol: Cell pellets were lysed in RIPA buffer (50 mM Tris at pH 8.0, 150 mM NaCl, 1% NP-40, 1 mM EDTA, and 1X protease inhibitor cocktail) or RIPA buffer containing 0.1% SDS. Equal amounts of protein extracts were separated by SDS-PAGE and blotted onto polyvinylidene difluoride (PVDF) membranes.

BCL10 [2] = molecular target: T1, BCL10; test: In vitro BCL10 filamentation assay (negative-stain electron microscopy); format: biochemical; settings: MBP-BCL10 and peptide premixed at 1:1 or 1:2 molar ratio, RT 30 min, then TEV cleavage
Protocol: MBP-BCL10 was expressed and purified as previously described. MBP-BCL10 and BCL10 peptide inhibitors were premixed at a 1:1 or 1:2 molar ratio at RT for 30 minutes before adding TEV to cleave the MBP tag. 5 μL of reaction mixture was applied to copper grids (Beijing Zhongjingkeyi Technology Co., Cat. No. BZ10024a), where it remained for 1 minute and was then negatively stained with 3% uranyl acetate for 1 minute, air-dried and imaged with a JEM-1230 TEM at 100 keV.

TMD8 cells = format: cell-based, human
From the text: (§1) GraphPad Prism software was used to determine GI50 values.

HBL1 cells [3] = format: cell-based
From the text: as §1

[4] = system: NF-κB target genes in TMD8 cells; test: RNA-seq gene set enrichment analysis of NF-κB target genes; format: cell-based; settings: BCL10-P4 5 μM, ibrutinib 10 nM, 8 h and 24 h, duplicate
Protocol: 1:100 dilution for 15 min at room temperature in the dark. Signals from FL1 and FL3 channels were collected by MACSQuant analyzer and data were analyzed using FloJo (Ashland, OR). Early apoptosis was defined as AnnexinV+/PI-, and late apoptosis as AnnexinV+/PI+. Percentage of apoptotic cells were the sum of early and late apoptotic cells.
For cell cycle analysis, cells were washed twice with cold PBS and fixed in 70% ethanol overnight at 4°C. Fixed cells were collected at 1800 rpm for 10 min and stained with PBS containing PI and DNase-free RNase A (Sigma-Aldrich) for 1h at room temperature in the dark. DNA content was measured by BD LSRII flow cytometer and data were analyzed in FloJo. […]
All extracts were treated with DNase in column during RNA purification. RNA integrity was determined on an Agilent 2100 Bioanalyzer (Agilent Technologies, SantaClara, CA). […]
RNAseq raw data are analyzed with the Salmon software 30 using default settings. Log2Fold changes and P values of differentiation gene expression between different samples are calculated using the Bioconductor - DESeq2 R package 31 using default settings. […]
Six-week-old female NOD prkdc-/- IL-2Rg-/- (NCG) mice purchased from GemPharmatech Co., Lt d we re raised in a SPF- level Laboratory Animal Room. […] Tumor volumes were monitored by a digital caliper every other day and calculated using the formula: (smallest diameter2 x largest diameter)/2. […]

SUDHL6 = format: cell-based, human; settings: 24 h
From the text: as §1

293T = test: Growth inhibition, noncancerous cell line; format: cell-based
From the text: as §1

BPH-1 = test: Growth inhibition, noncancerous cell line; format: cell-based
From the text: as §1

[5] = system: ABC-DLBCL cells (HBL1 and TMD8 cell lines); format: cell-based; settings: 72 h
From the text: as §1

DLBCL cell lines = format: cell-based
From the text: as §1

KARPAS422 = format: cell-based; settings: 24 h
From the text: as §1

OCI-LY3 = format: cell-based; settings: 24 h
From the text: as §1

RCK8 = format: cell-based; settings: 24 h
From the text: as §1

SUDHL4 = format: cell-based; settings: 24 h
From the text: as §1

Jurkat cells = test: Growth inhibition; format: cell-based; settings: Figure S3E; exposure time not given
From the text: as §1

[6] = system: HBL1, TMD8 and OCI-LY1 cells; test: Intracellular pharmacokinetics of biotinylated BCL10-P4 (streptavidin blot); format: in vitro ADME
Protocol: (§2) hActin- F: 5’-[…]-3’
(§3) hIL6-R: 5’- […]-3 ’.
(§4) hBcl10-F: 5’-[…] TAGAAA-3’
(§5) hBcl10-R: 5’-[…] T-3’
(§6) 1x105 HBL1, TMD8, OCl-LY 1 , OCl-LY 1 , U2932, MD901 or RCK8 cells were seeded in 12-well plate
(§7) wa sh e d and lysed with RIPA buffer.
(§8) immunoblotting with Streptavidin (Cell signaling, cat. #3999S). […]

HBL1 cells [7] = test: Intracellular pharmacokinetics, BCL10-P4 versus DRI-BCL10-P4; settings: Figure 6B and S7A; western blot
Protocol: MBP-Bcl10 was expressed and purified as previously described {Qiao, 2013 #85}. Purified
mM NaCl, 1% NP-40) at 4 °C for 1 hour, followed by addition of 5% BSA blocked S t re ptavidin (SAV)
Immunoprecipitant were washed 5 times with IP buffer and separated by SDS-PA G E . […]
as §2, §3, §4, §5, §6, §7, §8

[8] = noncancerous cell line, Figure S2C
[9] = 5 μM biotinylated BCL10-P4, cell lysate blotted with streptavidin

For `CCN(CC)CCCC(C)Nc1ccnc2cc(Cl)ccc12` (centres unmarked) [CHL, chloroquine], the “BCL10 degradation by BCL10-P4 with proteasome or autophagy inhibitor” value (BCL10 [1]) was “prevented BCL10 degradation by BCL10-P4”.
With `CC[C@@H](C)[C@@H](NC(=O)[C@@H](CC(C)C)NC(=O)[C@@H](CO)NC(=O)[C@H](N)CCCNC(=N)N)C(=O)N[C@H](CCCCN)C(=O)N[C@H](CCCCN)C(=O)N[C@H](C)C(=O)N[C@H](CCCNC(=N)N)C(=O)N[C@H](CC(C)C)C(=O)N[C@H](Cc1c[nH]cn1)C(=O)N[C@H](CC(=O)O)C(=O)N[C@H](Cc1ccccc1)C(=O)N[C@H](Cc1c[nH]cn1)C(=O)N[C@H](CCCNC(=N)N)C(=O)N[C@H](CCCCN)C(=O)N[C@H](CCCCN)C(=O)N[C@H](Cc1c[nH]c2ccccc12)C(=O)N[C@H](CCCCN)C(=O)N[C@H](CCSC)C(=O)N[C@H](CCCNC(=N)N)C(=O)N[C@H](CCCNC(=N)N)C(=O)N[C@H](CC(N)=O)C(=O)N[C@H](CCC(N)=O)C(=O)N[C@H](Cc1ccccc1)C(=O)N[C@H](Cc1c[nH]c2ccccc12)C(=O)N[C@@H](C(=O)N[C@H](CCCCN)C(=O)N[C@@H](C(=O)N[C@H](CCC(N)=O)C(=O)N[C@H](CCCNC(=N)N)C(=O)N[C@H](CC(=O)O)C(=O)O)[C@H](C)CC)[C@H](C)CC` [DRI-BCL10-P2] (H-[dR][dS][dL][dI][dK][dK][dA][dR][dL][dH][dD][dF][dH][dR][dK][dK][dW][dK][dM][dR][dR][dN][dQ][dF][dW][dI][dK][dI][dQ][dR][dD]-OH; N-terminus and C-terminus assumed) the “BCL10 filament formation (EM)” value (BCL10 [2]) was “inhibited Bc10 filament formation in vitro”, the GI50 (TMD8 cells) was 13.6 ± 2.3 µM and the GI50 (HBL1 cells [3]) was 7.64 ± 3.5 µM.
With `CC(C)C[C@@H](C=O)NC(=O)[C@H](CC(C)C)NC(=O)[C@H](CC(C)C)NC(=O)OCc1ccccc1` [MG132] (Cbz-Leu-Leu-Leu-aldehyde) the “BCL10 degradation by BCL10-P4 with proteasome or autophagy inhibitor” value (BCL10 [1]) was “negligibly prevented BCL10 degradation”.
For `C=CC(=O)N1CCC[C@@H](n2nc(-c3ccc(Oc4ccccc4)cc3)c3c(N)ncnc32)C1` [ibrutinib], the “expression of NF-κB target genes (GSEA)” value [4] was “comparable to the effect of ibrutinib treatment”.
For DRQIKIWFQNRRMKWKKEKIIAERHF [BCL10-P1], the GI50 (HBL1 cells [3]; 72 h) was 53.9 ± 10.3 µM.
With “DRQIKIWFQNRRMKWKKKGLDTLVESIRREKTQ [BCL10-P5]” the GI50 (TMD8 cells; 72 h) was 49 ± 33.9 µM and the GI50 (HBL1 cells [3]; 72 h) was 66.5 ± 9.2 µM.
For “DRQIKIWFQNRRMKWKKRHFDHLRAKKILSR [BCL10-P2]”, the GI50 (SUDHL6) was 5.42 ± 3.09 µM, the GI50 (TMD8 cells; 72 h) was 3.35 ± 1.1 µM and the “growth inhibition effect on 293T” value (293T) was “neither BCL10-P2 nor BCL10-P4 displayed a growth inhibition effect”. For the same compound, the “growth inhibition effect on BPH-1” value (BPH-1) was “neither BCL10-P2 nor BCL10-P4 displayed a growth inhibition effect”, the GI50 [5] was 3 to 6 µM and the GI50 (DLBCL cell lines) was < 10 µM. It also gave a GI50 (HBL1 cells [3]; 72 h) of 5.1 ± 0.8 µM, a GI50 (KARPAS422) of 5.39 ± 0.2 µM and a GI50 (OCI-LY3) of 5.51 ± 0.9 µM. The GI50 (RCK8) was 16 ± 12.3 µM and the GI50 (SUDHL4) was 2560 ± 230 nM.
“DRQIKIWFQNRRMKWKKRTSSRKRAGKLLDYLQE [BCL10-P4]” was tested, and the GI50 (TMD8 cells; 72 h, Figure 2B, mean ± SD of three independent experiments, read-out: GI50 TMD8) was 4.7 ± 1.8 µM, the GI50 (Jurkat cells) was 10.3 ± 2.29 µM and the “growth inhibition effect on 293T” value (293T; [8]) was “neither BCL10-P2 nor BCL10-P4 displayed a growth inhibition effect”. The “growth inhibition effect on BPH-1” value (BPH-1; [8]) was “neither BCL10-P2 nor BCL10-P4 displayed a growth inhibition effect”, the GI50 ([5]; text summary of Figure 2A-B, read-out: GI50 in the HBL1 and TMD8 cells) was 3 to 6 µM and the GI50 (DLBCL cell lines; only exception U2932, read-out: GI50 values on most ABC-DLBCL cell lines) was < 10 µM. For the same compound, the GI50 (HBL1 cells [3]; 72 h, Figure 2B, mean ± SD of three independent experiments, read-out: GI50 HBL1) was 4.2 ± 1 µM, the “cellular uptake (entry into cells)” value ([6]; 5 μM biotinylated BCL10-P4, 1-24 h, cell lysate blotted with streptavidin) was “comparable efficiency” and the “time of disappearance from cells” value [6, 9] was “approximately 24 h”. The “time of peak intracellular level” value [6, 9] was 1 to 2 h, the “intracellular level after the first 4 h (intracellular stability)” value (HBL1 cells [7]) was “decreased rapidly thereafter” and the “uptake by HBL1 cells and level within the first 4 h” value (HBL1 cells [7]) was “similarly taken up”.

From article PMC7546004, “Targeting BCL10 by small peptides for the treatment of B cell lymphoma” (Theranostics, 2020)
